Several values for one entry are separate records, joined by “and”; a condition that tells them apart may be missing. Equal entries are not always repeated.
What was measured:
[1] = test system: HCT116 cells; test: Antiproliferation assay (CCK-8), HCT116; assay type: cell-based; settings: Homo sapiens, HCT-116; CCK-8, 72 h; read-out: IC50 antiproliferative HCT116
Protocol: (§1) Cell viability was measured by Cell Counting Kit-8 (Meilunbio, Dalian, China) according to the manufacturer’s instructions. Briefly, cancer cells were seeded into 96-well plates at a density of 2.5 × 10^3 cells per well. […] Subsequently, CCK-8 solution was added into each well and incubated for an additional 2 h. The absorbance at 450 nm was determined in each well using the BioTek Synergy HTX microplate reader. The assay was performed in triplicate, and each experiment was repeated three times.

[2] = test system: MDA-MB-231 cells; test: Antiproliferation assay (CCK-8), MDA-MB-231; assay type: cell-based; settings: Homo sapiens, MDA-MB-231; CCK-8, 72 h; read-out: IC50 antiproliferative MDA-MB0231
Protocol: as §1, with “The antiproliferative activities of the compounds against HepG2, MDA-MB-231, and HCT116 cell lines were tested by the standard CCK-8 method. Cell viability” for “Cell viability”

[3] = test system: HepG2 cells; test: Antiproliferation assay (CCK-8), HepG2; assay type: cell-based; settings: Homo sapiens, HepG2; CCK-8, 72 h; read-out: IC50 antiproliferative HepG2
Protocol: as §1, with “The antiproliferative activities of the compounds against HepG2, MDA-MB-231, and HCT116 cell lines were tested by the standard CCK-8 method. Cell viability” for “Cell viability”

[4] = target: c-Met kinase (Homo sapiens, UniProt P08581); test: c-Met kinase inhibitory activity assay (in vitro); assay type: biochemical; settings: ATP 30 uM, enzyme 0.25 nM; means from three independent experiments
c-Met kinase, sequence (P08581 25-1390): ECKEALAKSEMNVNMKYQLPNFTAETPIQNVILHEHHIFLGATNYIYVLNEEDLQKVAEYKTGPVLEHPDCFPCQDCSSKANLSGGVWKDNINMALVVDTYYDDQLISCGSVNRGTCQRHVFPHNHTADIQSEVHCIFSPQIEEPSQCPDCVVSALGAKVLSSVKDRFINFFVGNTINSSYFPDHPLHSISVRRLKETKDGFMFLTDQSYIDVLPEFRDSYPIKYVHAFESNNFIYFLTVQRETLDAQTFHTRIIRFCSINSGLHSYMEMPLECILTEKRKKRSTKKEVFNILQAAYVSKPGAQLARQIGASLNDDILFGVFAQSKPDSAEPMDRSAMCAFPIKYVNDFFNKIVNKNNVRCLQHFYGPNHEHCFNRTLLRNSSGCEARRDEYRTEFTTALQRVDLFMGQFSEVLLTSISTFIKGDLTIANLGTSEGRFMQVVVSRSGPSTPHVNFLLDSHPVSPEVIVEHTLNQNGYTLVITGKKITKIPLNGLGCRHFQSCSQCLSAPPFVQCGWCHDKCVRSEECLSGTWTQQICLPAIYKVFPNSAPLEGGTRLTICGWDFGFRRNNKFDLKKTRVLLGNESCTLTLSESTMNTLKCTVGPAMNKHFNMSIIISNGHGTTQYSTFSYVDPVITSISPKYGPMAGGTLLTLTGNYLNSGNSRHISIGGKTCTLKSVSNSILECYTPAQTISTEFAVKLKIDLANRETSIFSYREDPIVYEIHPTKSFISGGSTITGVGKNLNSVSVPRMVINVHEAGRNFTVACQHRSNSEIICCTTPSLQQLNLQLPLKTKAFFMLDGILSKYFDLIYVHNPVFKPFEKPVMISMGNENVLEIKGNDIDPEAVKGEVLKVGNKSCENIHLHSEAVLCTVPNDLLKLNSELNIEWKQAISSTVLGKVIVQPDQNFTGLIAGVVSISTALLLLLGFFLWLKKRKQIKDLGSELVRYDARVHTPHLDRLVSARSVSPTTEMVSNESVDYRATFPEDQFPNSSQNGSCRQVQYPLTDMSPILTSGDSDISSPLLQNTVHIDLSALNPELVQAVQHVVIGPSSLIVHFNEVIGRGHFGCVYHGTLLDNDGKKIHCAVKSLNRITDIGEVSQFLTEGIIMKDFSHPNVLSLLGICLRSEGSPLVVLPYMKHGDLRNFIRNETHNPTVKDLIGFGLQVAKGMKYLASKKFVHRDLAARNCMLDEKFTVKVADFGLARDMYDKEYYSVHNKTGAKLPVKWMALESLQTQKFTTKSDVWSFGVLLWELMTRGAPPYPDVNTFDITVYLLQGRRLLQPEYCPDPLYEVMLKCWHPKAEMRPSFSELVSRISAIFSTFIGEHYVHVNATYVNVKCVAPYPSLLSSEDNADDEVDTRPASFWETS
Protocol: (§2) The in vitro inhibition assays of all final compounds against Mer and c-Met kinase were performed by Shanghai Bioduro Biological Technology Co., Ltd. (Shanghai, China). We prepared 1× buffer: HEPES 50 mM, MgCl2 10 mM, EGTA 1 mM, NP-40 0.0001%, DTT 2 mM; compound dilution with DMSO. For test compounds, a 100 × final concentration solution was prepared. About 100 nL compounds were transferred to a 384-well plate by using the automated liquid handler. The final DMSO% in the assay is 1%. Enzyme stock solutions were diluted with 1× assay buffer to a concentration of 0.5 nM to make a 2× working solution. […] Substrate solutions were diluted with 1× assay buffer. About 5 μL mix or buffer was added manually to the assay plate (ATP final 30 uM and TK-Sub-Biotin final 2 uM) using a multichannel pipette, spun down at 1000 rpm, and centrifuged for 30 s. After incubating at 30 °C for 60 min, 10 μL of detection solution was added to each well of the assay, mixed briefly with a centrifuge, and equilibrated for another 60 min. The luminescence was recorded using Envision.

[5] = target: T1, Mer kinase (Homo sapiens, UniProt Q12866); test: Mer kinase inhibitory activity assay (in vitro); assay type: biochemical; settings: ATP 30 uM, enzyme 0.25 nM; means from three independent experiments
T1 sequence (Q12866 21-999): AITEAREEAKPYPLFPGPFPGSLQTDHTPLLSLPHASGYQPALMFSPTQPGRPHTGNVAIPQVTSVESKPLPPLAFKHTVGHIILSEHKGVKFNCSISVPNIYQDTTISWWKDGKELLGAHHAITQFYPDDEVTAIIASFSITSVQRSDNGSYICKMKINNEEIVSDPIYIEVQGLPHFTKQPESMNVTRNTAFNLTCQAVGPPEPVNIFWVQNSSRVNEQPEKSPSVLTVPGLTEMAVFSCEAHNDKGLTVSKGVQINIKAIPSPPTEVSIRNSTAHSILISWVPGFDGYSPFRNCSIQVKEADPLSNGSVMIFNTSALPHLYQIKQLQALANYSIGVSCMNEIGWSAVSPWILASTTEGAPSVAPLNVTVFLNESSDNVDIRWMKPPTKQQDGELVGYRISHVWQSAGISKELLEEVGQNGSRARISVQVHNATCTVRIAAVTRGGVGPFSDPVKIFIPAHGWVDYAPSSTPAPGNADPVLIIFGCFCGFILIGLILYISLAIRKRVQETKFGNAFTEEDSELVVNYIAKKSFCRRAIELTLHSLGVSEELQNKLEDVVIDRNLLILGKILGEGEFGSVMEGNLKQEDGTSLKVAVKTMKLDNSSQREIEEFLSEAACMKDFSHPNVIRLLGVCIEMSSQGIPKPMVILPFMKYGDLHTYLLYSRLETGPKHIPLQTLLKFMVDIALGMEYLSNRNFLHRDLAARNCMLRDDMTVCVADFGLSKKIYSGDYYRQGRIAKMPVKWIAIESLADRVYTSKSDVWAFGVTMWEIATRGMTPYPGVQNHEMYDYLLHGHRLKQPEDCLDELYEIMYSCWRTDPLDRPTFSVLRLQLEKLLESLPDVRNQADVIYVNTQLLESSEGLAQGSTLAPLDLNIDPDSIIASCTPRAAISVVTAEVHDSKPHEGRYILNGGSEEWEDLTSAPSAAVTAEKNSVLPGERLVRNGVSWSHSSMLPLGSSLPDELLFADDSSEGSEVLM
Protocol: as §2

[6] = Liver microsome stability assay; assay type: in vitro ADME; settings: pH 7.4, human liver microsomes 0.2 mg/mL, test compound 1 μM, NADPH; for microsomal CLint at 1 μM: read-out: CL Human; for half-life at 1 μM: read-out: T1/2 Human
Protocol: Stock solution (10 mM) of each of test compound was prepared in DMSO. The stock solution for each compound was then diluted into 200 μM with acetonitrile. Incubation mixtures were prepared in a total volume of 200 μL with final component concentrations as follows: 0.1 M PBS (pH 7.4), NADPH (2 mM), liver microsomes (0.2 mg/mL), and test compound (1 μM) or positive control. NAPDH was added after a 5 min preincubation of all other components at 37 °C, then pipette-mixed to achieve a homogenous suspension and immediately transferred 20 μL of the incubate as a 0 min sample to wells in a “Quenching” plate, followed by pipette-mixing. At 5, 15, 30, and 60 min, we pipette-mixed the incubate and serially transferred samples of 20 μL of the incubate per time point to wells in a separate “Quenching” plate, followed by pipette-mixing. In “Quenching” plates, 200 μL of acetonitrile was added with IS. The 96 wells were centrifuged at 4000 rpm for 10 min. Then 50 μL of supernatant was mixed with 50 μL of ddH2O and injected into the LC-MS/MS system for analysis.

| SMILES | IC50 [4] | IC50 [5] | further results |
| --- | --- | --- | --- |
| COc1cc2nccc(Oc3ccc(NC(=O)C4(C(=O)Nc5ccc(F)cc5)CC4)cc3)c2cc1OC [Cabozantinib, reference compound] |  |  | IC50 [1]: 7820 nM; IC50 [2]: 29000 nM; IC50 [3]: 1720 nM |
| Cc1c(C(=O)Nc2ccc(Oc3ccnc(Nc4ccc(C(=O)NCCCN5CCOCC5)cc4)n3)cc2)c(=O)n(-c2ccccc2)n1C [Compound 14a] | 151 ± 22.6 nM | 8.1 nM and 7.9 nM |  |
| Cc1c(C(=O)Nc2ccc(Oc3ccnc(Nc4ccc(NC(=O)CN5CCN(C)CC5)cc4)n3)cc2)c(=O)n(-c2ccccc2)n1C [Compound 14b] | 179 ± 25.2 nM | 9.6 nM and 9.4 nM |  |
| Cc1c(C(=O)Nc2ccc(Oc3ccnc(Nc4ccc(NS(=O)(=O)c5ccccc5)cc4)n3)cc2)c(=O)n(-c2ccccc2)n1C [Compound 14c] | > 1000 nM | 166 ± 21.6 nM |  |
| Cc1c(C(=O)Nc2ccc(Oc3ccnc(Nc4cccc(NC(=O)CN5CCN(C)CC5)c4)n3)cc2)c(=O)n(-c2ccccc2)n1C [Compound 14d] | 144 ± 17.3 nM | 24.2 ± 2.6 nM |  |
| Cc1c(C(=O)Nc2ccc(Oc3ccnc(Nc4cccc(C(=O)NCCCN5CCOCC5)c4)n3)cc2)c(=O)n(-c2ccccc2)n1C [Compound 14e] | 321 ± 25.6 nM | 40.3 ± 3.6 nM |  |
| Cc1c(C(=O)Nc2ccc(Oc3ccnc(Nc4ccc(NC(=O)CN5CCN(C)CC5)c(C#N)c4)n3)cc2)c(=O)n(-c2ccccc2)n1C [Compound 14g] | 89.4 ± 12.6 nM | 7.1 ± 0.9 nM |  |
| Cc1c(C(=O)Nc2ccc(Oc3ccnc(Nc4ccc(NC(=O)CN5CCN(C)CC5)c(F)c4)n3)cc2)c(=O)n(-c2ccccc2)n1C [Compound 14h] | 74.9 ± 12.2 nM | 12.5 ± 2 nM |  |
| Cc1c(C(=O)Nc2ccc(Oc3ccnc(Nc4ccc(N(C)C(=O)CN5CCN(C)CC5)cc4)n3)cc2)c(=O)n(-c2ccccc2)n1C [Compound 14i] | 224 ± 24.6 nM | 97.1 ± 12.7 nM |  |
| CC(=O)N1CCN(c2ccc(Nc3nccc(Oc4ccc(NC(=O)C5(C(=O)Nc6ccc(F)cc6)CC5)cc4)n3)cc2)CC1 [Compound 18a] | 15.4 ± 1.4 nM | 85.3 ± 6.8 nM |  |
| O=C(Nc1ccc(F)cc1)C1(C(=O)Nc2ccc(Oc3ccnc(Nc4ccc(NS(=O)(=O)c5ccccc5)cc4)n3)cc2)CC1 [Compound 18b] | 941 ± 65.9 nM | > 10000 nM |  |
| O=C(NCCCN1CCOCC1)c1ccc(Nc2nccc(Oc3ccc(NC(=O)C4(C(=O)Nc5ccc(F)cc5)CC4)cc3)n2)cc1 [Compound 18d] | 52.7 ± 8.5 nM | 42.4 ± 5.8 nM |  |
| COCCNc1ccc(Nc2nccc(Oc3ccc(NC(=O)C4(C(=O)Nc5ccc(F)cc5)CC4)cc3)n2)cc1 [Compound 18e] | 77.3 ± 13.1 nM | 159 ± 17.4 nM |  |
| O=C(Nc1ccc(F)cc1)C1(C(=O)Nc2ccc(Oc3ccnc(Nc4ccc(CCC(O)c5ccccc5)cc4)n3)cc2)CC1 (stereo not drawn) [Compound 18f] | > 1000 nM | 463 ± 55.4 nM |  |
| CCN1CCN(CC(=O)Nc2ccc(Nc3nccc(Oc4ccc(NC(=O)C5(C(=O)Nc6ccc(F)cc6)CC5)cc4)n3)cc2)CC1 [Compound 18g] | 48.7 ± 8.7 nM | 20.3 ± 3.2 nM |  |
| CC(C)N1CCN(CC(=O)Nc2ccc(Nc3nccc(Oc4ccc(NC(=O)C5(C(=O)Nc6ccc(F)cc6)CC5)cc4)n3)cc2)CC1 [Compound 18h] | 42.6 ± 8.1 nM | 12.4 ± 1.9 nM |  |
| O=C(CN1CCN(CC2CC2)CC1)Nc1ccc(Nc2nccc(Oc3ccc(NC(=O)C4(C(=O)Nc5ccc(F)cc5)CC4)cc3)n2)cc1 [Compound 18i] | 77.1 ± 15.2 nM | 30.9 ± 5.3 nM |  |
| CC(=O)N1CCN(CC(=O)Nc2ccc(Nc3nccc(Oc4ccc(NC(=O)C5(C(=O)Nc6ccc(F)cc6)CC5)cc4)n3)cc2)CC1 [Compound 18j] | 32.8 ± 5.8 nM | 57.5 ± 9.4 nM |  |
| CN1CCN(CC(=O)Nc2ccc(Nc3nccc(Oc4ccc(NC(=O)C5(C(=O)Nc6ccc(F)cc6)CC5)cc4)n3)cc2C#N)CC1 [Compound 18k] | 51.2 ± 8 nM | 10.2 ± 1.4 nM |  |
| CN1CCN(CC(=O)Nc2ccc(Nc3nccc(Oc4ccc(NC(=O)C5(C(=O)Nc6ccc(F)cc6)CC5)cc4)n3)cc2F)CC1 [Compound 18l] | 48.7 ± 8.2 nM | 18.3 ± 2.7 nM | microsomal CLint at 1 μM [6]: 360 µL/min/mg; half-life at 1 μM [6]: 9.6 min |
| CN1CCN(CC(=O)N(C)c2ccc(Nc3nccc(Oc4ccc(NC(=O)C5(C(=O)Nc6ccc(F)cc6)CC5)cc4)n3)cc2)CC1 [Compound 18m] | 74.4 ± 13.5 nM | 126 ± 17.8 nM |  |
| CC(C(=O)Nc1ccc(Nc2nccc(Oc3ccc(NC(=O)C4(C(=O)Nc5ccc(F)cc5)CC4)cc3)n2)cc1)N1CCN(C)CC1 (stereo not drawn) [Compound 18n] | 30.7 ± 4.8 nM | 31.6 ± 5.4 nM | microsomal CLint at 1 μM [6]: 290 µL/min/mg; half-life at 1 μM [6]: 11.9 min |
| CN1CCN(CC(=O)Nc2cccc(Nc3nccc(Oc4ccc(NC(=O)C5(C(=O)Nc6ccc(F)cc6)CC5)cc4)n3)c2)CC1 [Compound 18o] | 39.8 ± 6.6 nM | 24.8 ± 3.3 nM | microsomal CLint at 1 μM [6]: 400 µL/min/mg; half-life at 1 μM [6]: 8.6 min |
| C[C@]12CC[C@H]3[C@@H](CCC4=CC(=O)CC[C@@]43C)[C@@H]1CC[C@@H]2O [Testosterone, reference compound] |  |  | half-life at 1 μM [6]: 32.1 min |
